Source: patent publication US20250346574A1, “PYRIDINYL SUBSTITUTED OXOISOINDOLINE COMPOUNDS FOR THE TREATMENT OF CANCER” (Bristol-Myers Squibb Company, priority 2021, published 2025)

Target: Helios (Homo sapiens, UniProt Q96SW2+Q9UKS7)
Assay: Helios Human T Regulatory Cells Degradation Assay
Type: cell-based
Parameters: fluorescently labelled antibodies against Helios in 1× Permeabilization buffer; endogenous in cells; host or cells: cryopreserved human T regulatory cells
Details: cryopreserved human T regulatory cells, incubated 20 hours, Helios-APC antibody staining, flow cytometry; read-out: hTreg Helios DC50
Description: Cryopreserved human T regulatory cells were thawed in RPMI+10% FBS+20 ng/mL IL-2. After being spun at 1200 rpm for 5 mins, the cells were resuspended in RPMI+10% FBS+20 ng/mL and rested at 37° C. with 5% CO2 for 3 hours. […] Cell cultures were incubated for 20 hours at 37° C. and 5% CO2. In order to facilitate analysis, cell cultures were spun down at 1200 rpm for 5 minutes and the supernatant was discarded using an EL406 plate washer. After washing three times with 70 μL PBS, cell pellets were resuspended in 50 μL of near IR viability staining solution (Life Technologies, Cat #L34975) and incubated for 30 minutes on ice protected from light. Cells were washed three times with 70 μL PBS+0.5% BSA using an EL406 plate washer. […] Subsequently, 30 μL of 1× Permeabilization buffer was added prior to centrifuging the cells and discarding the supernatant. Stained cells were resuspended in 30 μL of flow cytometry staining buffer (PBS+0.5% BSA) and analyzed using an Intellicyt Ique Plus flow cytometer.

Chain of Helios (Q9UKS7 whole entry): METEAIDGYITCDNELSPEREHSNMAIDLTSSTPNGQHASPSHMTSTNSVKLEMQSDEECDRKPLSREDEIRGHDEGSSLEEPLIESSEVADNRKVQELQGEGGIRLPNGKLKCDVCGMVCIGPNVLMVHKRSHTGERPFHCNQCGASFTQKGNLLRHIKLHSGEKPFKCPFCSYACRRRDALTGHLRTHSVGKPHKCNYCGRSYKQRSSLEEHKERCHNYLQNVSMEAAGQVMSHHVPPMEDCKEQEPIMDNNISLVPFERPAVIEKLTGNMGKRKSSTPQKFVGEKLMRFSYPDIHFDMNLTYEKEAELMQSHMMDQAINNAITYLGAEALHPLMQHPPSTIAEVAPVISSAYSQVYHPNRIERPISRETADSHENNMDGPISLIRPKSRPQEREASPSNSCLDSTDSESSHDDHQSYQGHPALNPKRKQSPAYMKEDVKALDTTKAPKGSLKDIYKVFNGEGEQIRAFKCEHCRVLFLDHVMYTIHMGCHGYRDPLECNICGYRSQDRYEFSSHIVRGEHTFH
Chain of Helios (Q96SW2 whole entry): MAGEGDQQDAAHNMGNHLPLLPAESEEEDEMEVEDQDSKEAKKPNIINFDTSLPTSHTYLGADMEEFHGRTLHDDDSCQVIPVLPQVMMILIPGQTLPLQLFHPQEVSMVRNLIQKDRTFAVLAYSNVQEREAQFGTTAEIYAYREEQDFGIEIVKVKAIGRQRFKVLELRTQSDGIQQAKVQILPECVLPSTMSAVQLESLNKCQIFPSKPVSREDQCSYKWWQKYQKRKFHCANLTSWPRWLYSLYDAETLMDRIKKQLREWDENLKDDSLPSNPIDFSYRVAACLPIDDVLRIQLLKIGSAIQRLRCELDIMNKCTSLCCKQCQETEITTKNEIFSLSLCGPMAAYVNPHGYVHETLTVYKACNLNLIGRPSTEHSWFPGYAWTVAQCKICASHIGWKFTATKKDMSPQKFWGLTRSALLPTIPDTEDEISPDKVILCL
Chain of Helios (Q16531 whole entry partner): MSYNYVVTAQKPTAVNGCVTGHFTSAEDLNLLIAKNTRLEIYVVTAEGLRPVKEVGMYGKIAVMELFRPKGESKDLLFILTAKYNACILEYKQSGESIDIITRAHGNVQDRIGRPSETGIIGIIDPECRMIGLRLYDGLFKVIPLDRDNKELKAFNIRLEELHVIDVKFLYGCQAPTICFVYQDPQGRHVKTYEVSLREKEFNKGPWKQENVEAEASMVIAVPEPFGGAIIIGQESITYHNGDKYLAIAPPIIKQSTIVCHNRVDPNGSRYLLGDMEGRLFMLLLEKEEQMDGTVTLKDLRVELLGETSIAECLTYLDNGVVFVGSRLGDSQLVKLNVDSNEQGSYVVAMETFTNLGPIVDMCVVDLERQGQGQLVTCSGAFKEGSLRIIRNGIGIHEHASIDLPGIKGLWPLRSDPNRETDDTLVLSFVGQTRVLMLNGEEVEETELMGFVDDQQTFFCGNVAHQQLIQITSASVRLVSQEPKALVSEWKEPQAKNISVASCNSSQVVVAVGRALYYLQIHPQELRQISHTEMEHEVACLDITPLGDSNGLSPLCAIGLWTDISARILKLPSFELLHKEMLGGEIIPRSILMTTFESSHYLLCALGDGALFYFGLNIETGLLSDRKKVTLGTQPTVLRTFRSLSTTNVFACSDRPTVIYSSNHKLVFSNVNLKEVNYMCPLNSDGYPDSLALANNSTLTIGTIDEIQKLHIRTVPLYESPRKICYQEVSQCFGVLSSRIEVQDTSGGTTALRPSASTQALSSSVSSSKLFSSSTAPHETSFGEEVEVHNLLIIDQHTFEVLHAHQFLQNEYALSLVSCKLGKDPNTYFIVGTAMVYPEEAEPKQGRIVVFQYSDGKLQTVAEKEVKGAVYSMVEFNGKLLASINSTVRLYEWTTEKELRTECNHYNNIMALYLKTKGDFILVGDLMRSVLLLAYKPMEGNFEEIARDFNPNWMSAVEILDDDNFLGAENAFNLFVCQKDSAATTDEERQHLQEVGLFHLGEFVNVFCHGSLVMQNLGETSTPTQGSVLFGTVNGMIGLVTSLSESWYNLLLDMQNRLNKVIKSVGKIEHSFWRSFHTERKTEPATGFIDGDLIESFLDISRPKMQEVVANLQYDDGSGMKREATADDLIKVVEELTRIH

| SMILES | DC50 [nM] |
| --- | --- |
| CC1CC(O)CCN1Cc1ccnc(-c2ccc3c(c2)CN(C2CCC(=O)NC2=O)C3=O)c1F (single isomer, unassigned) [Example 212, 3-(5-(3-fluoro-4-((4-hydroxy-2-methylpiperidin-1-yl)methyl)pyridin-2-yl)-1-oxoisoindolin-2-yl)piperidine-2,6-dione] | 653 |
| CC(C)(C)OC(=O)[C@@H]1C[C@@H](OC(C)(C)C)CN1Cc1ccnc(-c2ccc3c(c2)CN(C2CCC(=O)NC2=O)C3=O)c1F (single isomer, unassigned) [Example 214] | 3.5 |
| CC(C)(O)C1CN(Cc2ccnc(-c3ccc4c(c3)CN(C3CCC(=O)NC3=O)C4=O)c2F)C1 (centres unmarked) [Example 89, 3-(5-(3-fluoro-4-((3-(2-hydroxypropan-2-yl)azetidin-1-yl)methyl)pyridin-2-yl)-1-oxoisoindolin-2-yl)piperidine-2,6-dione] | 18.4 |
| C[C@H]1[C@H](O)CN1Cc1ccnc(-c2ccc3c(c2)CN(C2CCC(=O)NC2=O)C3=O)c1F (stereo partly drawn) [Example 90, 3-(5-(3-fluoro-4-(((2S,3R)-3-hydroxy-2-methylazetidin-1-yl)methyl)pyridin-2-yl)-1-oxoisoindolin-2-yl)piperidine-2,6-dione] | 454 |
| O=C1CCC(N2Cc3cc(-c4nccc(CN5CCC(O)(c6ccccc6)CC5)c4F)ccc3C2=O)C(=O)N1 (centres unmarked) [Example 91, 3-(5-(3-fluoro-4-((4-hydroxy-4-phenylpiperidin-1-yl)methyl)pyridin-2-yl)-1-oxoisoindolin-2-yl)piperidine-2,6-dione] | ≥ 10000 |
| O=C1CCC(N2Cc3cc(-c4cc(CN5C[C@@H]6C(CO)[C@@H]6C5)ccn4)ccc3C2=O)C(=O)N1 (stereo partly drawn) [Example 101, 3-(5-(4-(((1R,5S,6r)-6-(hydroxymethyl)-3-azabicyclo[3.1.0]hexan-3-yl)methyl)pyridin-2-yl)-1-oxoisoindolin-2-yl)piperidine-2,6-dione] | 4.2 |
| CC(C)(O)[C@H]1CCN(Cc2ccnc(-c3ccc4c(c3)CN(C3CCC(=O)NC3=O)C4=O)c2)C1 (stereo partly drawn) [Example 104, 3-(5-(4-(((S)-3-(2-hydroxypropan-2-yl)pyrrolidin-1-yl)methyl)pyridin-2-yl)-1-oxoisoindolin-2-yl)piperidine-2,6-dione] | 4.2 |
| CC(C)(O)[C@@H]1CCN(Cc2ccnc(-c3ccc4c(c3)CN(C3CCC(=O)NC3=O)C4=O)c2)C1 (stereo partly drawn) [Example 106, 3-(5-(4-(((R)-3-(2-hydroxypropan-2-yl)pyrrolidin-1-yl)methyl)pyridin-2-yl)-1-oxoisoindolin-2-yl)piperidine-2,6-dione] | 6 |
| CC(C)(O)[C@H]1CCN(Cc2ccnc(-c3ccc4c(c3)CN(C3CCC(=O)NC3=O)C4=O)c2F)C1 (stereo partly drawn) [Example 110, 3-(5-(3-fluoro-4-(((S)-3-(2-hydroxypropan-2-yl)pyrrolidin-1-yl)methyl)pyridin-2-yl)-1-oxoisoindolin-2-yl)piperidine-2,6-dione] | 9.8 |
| CC(O)C1CCN(Cc2ccnc(-c3ccc4c(c3)CN(C3CCC(=O)NC3=O)C4=O)c2F)CC1 (centres unmarked) [Example 113, 3-(5-(3-fluoro-4-((4-(1-hydroxyethyl)piperidin-1-yl)methyl)pyridin-2-yl)-1-oxoisoindolin-2-yl) piperidine-2,6-dione] | 13.9 |
| O=C1CCC(N2Cc3cc(-c4nccc(CN5CC[C@H](O)C5)c4F)ccc3C2=O)C(=O)N1 (stereo partly drawn) [Example 114, 3-(5-(3-fluoro-4-(((S)-3-hydroxypyrrolidin-1-yl)methyl)pyridin-2-yl)-1-oxoisoindolin-2-yl)piperidine-2,6-dione] | 23.5 |
| C[C@@H]1c2c(ccc(-c3cc(CN4CC[C@@H](CO)C4)ccn3)c2F)C(=O)N1[C@H]1CCC(=O)NC1=O [Example 133, (S)-3-((R)-4-fluoro-5-(4-(((R)-3-(hydroxymethyl)pyrrolidin-1-yl)methyl)pyridin-2-yl)-3-methyl-1-oxoisoindolin-2-yl)piperidine-2,6-dione] | 23.1 |
| C[C@@H]1c2c(ccc(-c3cc(CN4CCC(O)(c5ccccc5)C4)ccn3)c2F)C(=O)N1[C@H]1CCC(=O)NC1=O (stereo partly drawn) [Example 139, (3S)-3-((3R)-4-fluoro-5-(4-((3-hydroxy-3-phenylpyrrolidin-1-yl)methyl)pyridin-2-yl)-3-methyl-1-oxoisoindolin-2-yl)piperidine-2,6-dione] | 367 |

Continued by falling DC50, values first:

| DC50 [nM] | SMILES |
| --- | --- |
| 4110 | O=C1CCC(N2Cc3cc(-c4cc(CN5Cc6cnc(Cl)cc6C5)ccn4)ccc3C2=O)C(=O)N1 (centres unmarked) [Example 103, 3-(5-(4-((6-chloro-1,3-dihydro-2H-pyrrolo[3,4-c]pyridin-2-yl)methyl)pyridin-2-yl)-1-oxoisoindolin-2-yl)piperidine-2,6-dione] |
| 21.3 | O=C1CCC(N2Cc3cc(-c4nccc(CN5CC[C@H](CO)C5)c4F)ccc3C2=O)C(=O)N1 (stereo partly drawn) [Example 109, 3-(5-(3-fluoro-4-(((S)-3-(hydroxymethyl)pyrrolidin-1-yl)methyl)pyridin-2-yl)-1-oxoisoindolin-2-yl)piperidine-2,6-dione] |
| 17.1 | CC(C)(O)C1CN(Cc2ccnc(-c3ccc4c(c3)CN(C3CCC(=O)NC3=O)C4=O)c2Cl)C1 (centres unmarked) [Example 97, 3-(5-(3-chloro-4-((3-(2-hydroxypropan-2-yl)azetidin-1-yl)methyl)pyridin-2-yl)-1-oxoisoindolin-2-yl) piperidine-2,6-dione] |
| 11.5 | CC1(O)CC2CN(Cc3ccnc(-c4ccc5c(c4)CN(C4CCC(=O)NC4=O)C5=O)c3)CC2C1 (stereo in doubt) [Example 147, (3S)-3-(5-(4-((5-hydroxy-5-methylhexahydrocyclopenta[c]pyrrol-2(1H)-yl)methyl)pyridin-2-yl)-1-oxoisoindolin-2-yl)piperidine-2,6-dione] |
| 10.4 | CC(C)(O)[C@@H]1CCN(Cc2ccnc(-c3ccc4c(c3)CN(C3CCC(=O)NC3=O)C4=O)c2F)C1 (stereo partly drawn) [Example 111, 3-(5-(3-fluoro-4-(((R)-3-(2-hydroxypropan-2-yl)pyrrolidin-1-yl)methyl)pyridin-2-yl)-1-oxoisoindolin-2-yl) piperidine-2,6-dione] |
| 9.5 | CC(O)C1CCN(Cc2ccnc(-c3ccc4c(c3)CN(C3CCC(=O)NC3=O)C4=O)c2F)C1 (centres unmarked) [Example 112, 3-(5-(3-fluoro-4-((3-(1-hydroxyethyl)pyrrolidin-1-yl)methyl)pyridin-2-yl)-1-oxoisoindolin-2-yl)piperidine-2,6-dione] |
| 8.1 | O=C1CCC(N2Cc3cc(-c4cc(CN5CC[C@@H](CO)C5)ccn4)ccc3C2=O)C(=O)N1 (stereo partly drawn) [Example 102, 3-(5-(4-(((R)-3-(hydroxymethyl)pyrrolidin-1-yl)methyl)pyridin-2-yl)-1-oxoisoindolin-2-yl)piperidine-2,6-dione] |
| 6.6 | CC(C)(O)[C@H]1CCCN1Cc1ccnc(-c2ccc3c(c2)CN(C2CCC(=O)NC2=O)C3=O)c1Cl (stereo partly drawn) [Example 96, 3-(5-(3-chloro-4-(((R)-2-(2-hydroxypropan-2-yl)pyrrolidin-1-yl)methyl)pyridin-2-yl)-1-oxoisoindolin-2-yl)piperidine-2,6-dione] |
| 5.8 | CC(O)C1CCN(Cc2ccnc(-c3ccc4c(c3)CN(C3CCC(=O)NC3=O)C4=O)c2)C1 (centres unmarked) [Example 107, 3-(5-(4-((3-(1-hydroxyethyl)pyrrolidin-1-yl)methyl)pyridin-2-yl)-1-oxoisoindolin-2-yl)piperidine-2,6-dione] |
| 3.4 | O=C1CCC(N2Cc3cc(-c4nccc(CN5CC6(CCC6)C5)c4F)ccc3C2=O)C(=O)N1 (centres unmarked) [Example 88, 3-(5-(4-((2-azaspiro[3.3]heptan-2-yl)methyl)-3-fluoropyridin-2-yl)-1-oxoisoindolin-2-yl)piperidine-2,6-dione] |
| 3.2 | O=C1CCC(N2Cc3cc(-c4cc(CN5CCC6(CC5)COC6)ccn4)ccc3C2=O)C(=O)N1 (centres unmarked) [Example 100, 3-(5-(4-((2-oxa-7-azaspiro[3.5]nonan-7-yl)methyl)pyridin-2-yl)-1-oxoisoindolin-2-yl)piperidine-2,6-dione] |
| 2 | COCC1CCCN(Cc2ccnc(-c3ccc4c(c3)CN(C3CCC(=O)NC3=O)C4=O)c2)C1 (centres unmarked) [Example 99, 3-(5-(4-((3-(methoxymethyl)piperidin-1-yl)methyl)pyridin-2-yl)-1-oxoisoindolin-2-yl)piperidine-2,6-dione] |
| 1.7 | O=C1CCC(N2Cc3cc(-c4cc(CN5CC6(CCC6)C5)c(F)cn4)ccc3C2=O)C(=O)N1 (centres unmarked) [Example 93, 3-(5-(4-((2-azaspiro[3.3]heptan-2-yl)methyl)-5-fluoropyridin-2-yl)-1-oxoisoindolin-2-yl) piperidine-2,6-dione] |
| 1.4 | CC(O)C1CCN(Cc2ccnc(-c3ccc4c(c3)CN(C3CCC(=O)NC3=O)C4=O)c2)CC1 (centres unmarked) [Example 108, 3-(5-(4-((4-(1-hydroxyethyl)piperidin-1-yl)methyl)pyridin-2-yl)-1-oxoisoindolin-2-yl)piperidine-2,6-dione] |
| 1.2 | CC(C)(O)C1CCN(Cc2cc(-c3ccc4c(c3)CN(C3CCC(=O)NC3=O)C4=O)ncc2F)CC1 (centres unmarked) [Example 92, 3-(5-(5-fluoro-4-((4-(2-hydroxypropan-2-yl)piperidin-1-yl)methyl)pyridin-2-yl)-1-oxoisoindolin-2-yl)piperidine-2,6-dione] |
| 0.4 | O=C1CCC(N2Cc3cc(-c4cc(CN5CC[C@H](CO)C5)ccn4)ccc3C2=O)C(=O)N1 (stereo partly drawn) [Example 105, 3-(5-(4-(((S)-3-(hydroxymethyl)pyrrolidin-1-yl)methyl)pyridin-2-yl)-1-oxoisoindolin-2-yl) piperidine-2,6-dione] |
